Where two headings read alike, the source gives them in different places.
Molecular target: SARS-CoV-2 3CL^pro (Severe acute respiratory syndrome coronavirus 2 (2019-nCoV) (SARS-CoV-2), UniProt P0DTD1)
Experiment: biochemical
Conditions: FRET
[1] = class symbols, read-out: IC50 (nM), inhibitory activity against 3CL^pro
[2] = non-linear regression, read-out: IC50 against 3CL^pro

Row | Structure (SMILES) | IC50 [1] [nM] | IC50 [2] [nM]
1 | Cn1cc2cc(/N=c3\[nH]c(=O)n(Cc4nnn[nH]4)c(=O)n3Cc3cc(F)cc(F)c3)c(Cl)cc2n1 [Compound 15] | < 200 | < 200
2 | Cn1cc2cc(/N=c3\[nH]c(=O)n(Cc4nnn[nH]4)c(=O)n3Cc3ccc([N+](=O)[O-])cc3)c(Cl)cc2n1 [Compound 9] | > 1000 | –
3 | CC(C)Cn1nnnc1Cn1c(=O)[nH]/c(=N\c2cc3cn(C)nc3cc2Cl)n(Cc2cc(F)c(F)cc2F)c1=O [Compound 24] | > 1000 | –
4 | CCn1nnnc1Cn1c(=O)[nH]/c(=N\c2cc3cn(C)nc3cc2Cl)n(Cc2ccc(Cl)cc2)c1=O [Compound 20] | 200 to 500 | –
5 | CCn1nnnc1Cn1c(=O)[nH]/c(=N\c2ccc3nn(C)cc3c2)n(Cc2ccc([N+](=O)[O-])cc2)c1=O [Compound 19] | 200 to 500 | –
6 | Cc1ccc(Cn2c(Nc3cc4cn(C)nc4cc3Cl)nc(=O)n(Cc3nnn[nH]3)c2=O)cc1 [Compound 3, (E)-3-(1H-tetrazol-5-yl)methyl)-6-(6-chloro-2-methyl-2H-indazol-5-yl)imino)-1-(4-methylbenzyl)-1,3,5-triazin-2,4-dione] | 500 to 1000 | –
7 | Cn1cc2cc(Nc3nc(=O)n(Cc4nnn[nH]4)c(=O)n3Cc3ccc(-c4ccccc4)cc3)c(Cl)cc2n1 [Compound 7, (E)-3-((1H-tetrazol-5-yl)methyl)-1-([1,1-biphenyl]-4-ylmethyl)-6-((6-chloro-2-methyl-2H-indazol-5-yl)imino)-1,3,5-triazin-2,4-dione] | > 1000 | –
8 | Cn1cc2cc(/N=c3\[nH]c(=O)n(Cc4nnn[nH]4)c(=O)n3Cc3ccc(Br)cc3)c(Cl)cc2n1 [Compound 6] | 200 to 500 | –
9 | COc1cc(Cn2c(=O)n(Cc3nnn[nH]3)c(=O)[nH]/c2=N\c2cc3cn(C)nc3cc2Cl)cc(OC)c1 [Compound 14] | 500 to 1000 | –
10 | Cc1cc(C)cc(Cn2c(=O)n(Cc3nnn[nH]3)c(=O)[nH]/c2=N\c2cc3cn(C)nc3cc2Cl)c1 [Compound 13] | 500 to 1000 | –
11 | Cn1cc2cc(/N=c3\[nH]c(=O)n(Cc4nnnn4C4CCC4)c(=O)n3Cc3cc(F)c(F)cc3F)c(Cl)cc2n1 [Compound 23] | 500 to 1000 | –
12 | Cn1cc2cc(/N=c3\[nH]c(=O)n(Cc4nnnn4C)c(=O)n3Cc3cc(F)c(F)cc3F)c(Cl)cc2n1 [Compound 16] | < 200 | < 200
13 | Cn1cc2cc(/N=c3\[nH]c(=O)n(Cc4nnn[nH]4)c(=O)n3Cc3ccc(Cl)cc3)c(Cl)cc2n1 [Compound 5] | 200 to 500 | –
14 | Cn1cc2cc(/N=c3\[nH]c(=O)n(Cc4nnnn4C4CC4)c(=O)n3Cc3cc(F)c(F)cc3F)c(Cl)cc2n1 [Compound 21] | 200 to 500 | –
15 | Cn1cc2cc(Nc3nc(=O)n(Cc4nnn[nH]4)c(=O)n3Cc3ccc(C(F)(F)F)cc3)c(Cl)cc2n1 [Compound 8, (E)-3-(1H-tetrazol-5-yl)methyl)-6-(6-chloro-2-methyl-2H-indazol-5-yl)imino)-1-(4-(trifluoromethyl)benzyl)-1,3,5-triazin-2,4-dione] | 500 to 1000 | –
16 | Cn1cc2cc(/N=c3\[nH]c(=O)n(Cc4nnn[nH]4)c(=O)n3Cc3ccc(OC(F)(F)F)cc3)c(Cl)cc2n1 [Compound 11] | 500 to 1000 | –
17 | Cn1cc2cc(/N=c3\[nH]c(=O)n(Cc4nnn[nH]4)c(=O)n3Cc3ccc(C(C)(C)C)cc3)c(Cl)cc2n1 [Compound 4] | 500 to 1000 | –
18 | CCn1nnnc1Cn1c(=O)[nH]/c(=N\c2cc3cn(C)nc3cc2Cl)n(Cc2ccc(C(F)(F)F)cc2)c1=O [Compound 18] | 200 to 500 | –
19 | COc1ccc(Cn2c(=O)n(Cc3nnn[nH]3)c(=O)[nH]/c2=N\c2cc3cn(C)nc3cc2Cl)cc1 [Compound 10] | 200 to 500 | –
20 | Cn1cc2cc(/N=c3\[nH]c(=O)n(Cc4nnn[nH]4)c(=O)n3Cc3ccccc3)c(Cl)cc2n1 [Compound 2, (E)-3-((1H-tetrazol-5-yl)methyl)-1-benzyl-6-((6-chloro-2-methyl-2H-indazol-5-yl)imino)-1,3,5-triazin-2,4-dione] | 500 to 1000 | –
21 | CC(C)n1nnnc1Cn1c(=O)[nH]/c(=N\c2cc3cn(C)nc3cc2Cl)n(Cc2cc(F)c(F)cc2F)c1=O [Compound 22] | 200 to 500 | –
